Test results taken from patent US20210228525A1, “Methods of Administering Monomethyl Fumarate and Prodrugs Thereof Having Reduced Side Effects” (Arbor Pharmaceuticals, LLC, priority 2012, published 2021).

Experiment: Randomized double-blind crossover food effect single-dose study: safety and tolerability (flushing, feeling hot)
Format: in vivo, human
Settings: for Subjects reporting flushing: fasted group; for Subjects reporting feeling hot more than for placebo: fed or fasted groups
Source text: (§1) Twenty-four healthy adult volunteers (males and females) participated in the study. Twelve of the subjects received a dosage form of Example 3, once in a fed condition and once in a fasted condition, with a two-week washout between treatments. The fasted dosing was achieved by dosing the subject following an overnight fast while the fed dosing was achieved by dosing the subject after consuming a high fat-content breakfast.
as §1, with “Twelve” for “Twenty-four”, “All twelve” for “Twelve of the”, “5,” for “3,”
as §1, with “Twelve” for “Twenty-four”, “All twelve” for “Twelve of the”, “10,” for “3,”

[1] = Example 3 dosage form, 200 mg single dose
[2] = Example 5 dosage form, 200 mg single dose
[3] = Example 10 dosage form, single dose

## CCN(CC)C(=O)COC(=O)/C=C/C(=O)OC [Compound (1), (N,N-Diethylcarbamoyl)methyl methyl (2E)but-2-ene-1,4-dioate]
[1]
  Severity of all adverse events: mild
  Tolerability during the trial: well tolerated
Example 3 dosage form
  Subjects reporting flushing: No subjects
  Subjects reporting flushing more frequently than in the fed placebo group: One
  Subjects reporting feeling hot more than for placebo: no subjects
[2]
  Severity of all adverse events: mild
  Tolerability during the trial: well tolerated
Example 5 dosage form
  Subjects reporting flushing: No subjects
  Subjects reporting flushing more frequently than in the fed placebo group: Two
  Subjects reporting feeling hot more than for placebo: no subjects
[3]
  Adverse events reported in more than one subject and more frequently than for placebo: flushing and feeling hot
  Severity of all adverse events: mild
  Tolerability during the trial: well tolerated
